# Experimental data: patent publication US7262269B2, “Method for screening combinational bead library; ligands for cancer cells” (The Regents of University of California, priority 2001, dated 2007)
# Test system: non-epithelial glioblastoma brain cancer cell line A-172
# Assay: cell-growth-on-bead assay, A-172
# Type: cell-based, human
# Conditions: Example 5, library of Example 3, 24 to 72 hours
# Procedure: (§1) The ratio of cells to beads is preferably about 10:1, but can range from about 1:1 to 100:1. The suspension of cells 10 and beads 12 is mixed gently for sufficient time to assure contact of beads 12 with suspended cells 10. The culture plates are incubated in a tissue culture incubator at about 4° C. to about 37° C., preferably 37° C., for a period of about 24 to about 72 hours. The suspension of cells 10 and beads 12 may be kept still or mixed, either continuously or intermittently, during the incubation period.
# (§2) After the incubation period, beads 12 are observed under a dissecting microscope. […] These beads 14 (referred to as “positive” beads) are removed from the culture plates. A tetrazolium dye that stains live, but not dead, cells can be used to facilitate the identification and removal of the positive beads. If a dye is used, all of the beads are removed after the incubation period and resuspended in fresh medium in new culture plates. The dye is added. The plates are then incubated in a tissue culture incubator at 25° C. to 37° C. for about one to four hours. Live cells 10 convert the dye to a colored metabolite, which results in beads 14 with attached cells appearing colored, allowing them to be easily distinguished from beads 16 without attached cells, which appear colorless, as shown in FIG. 1E. Other dyes that stain live cells can also be used. After positive beads 14 are removed from the plates, attached cells 10 are separated from the beads. This can be done with the addition of a chaotrophic agent, such as 8 M guanidine hydrochloride, or a protease, such as trypsin.
# (§3) About 150,000 peptide beads were mixed with approximately one million suspended cells in 15 ml of culture medium and distributed into six 3-cm culture plates. The culture plates were agitated gently at about 100 rpm for about 10 minutes. The culture plates were then incubated in a tissue culture incubator at 37° C. for about 24 hours to about 72 hours.
# (§4) A dissecting microscope was used to examine the beads at about 24, 48, and 72 hours. After about 24 to 72 hours, beads with a monolayer of cells were observed.
# (§5) At the end of the incubation period, all of the beads were removed and resuspended in fresh medium in a new culture plate. An MTT ([3-(4,5-dimethylthiazol-2-yl)-2,5-diphenyl] tetrazolium bromide) (Sigma, St. Louis, Mo.) dye solution was added to each culture plate to a final concentration of 0.5 mg/ml. The plates were incubated in a tissue culture incubator at 37° C. for about two hours to allow the purple color to develop. Each purple-colored peptide bead was isolated and removed. The attached cells were separated from the beads with 8 M guanidine hydrochloride.
# (§6) The amino acid sequence of each isolated peptide bead was determined using an automated Procise 494 protein sequencer (Applied Biosystems, Foster City, Calif.). Several consensus peptide sequences were determined, one of which was cNGRGEQc. This peptide was resynthesized on beads, which were then rescreened with the A549 cells using the assay of the invention.
# The method as described in Example 1 was performed, except that a different combinatorial library was used and non-epithelial cancer cells were used. A one-bead-one-compound combinatorial peptide library was prepared as described in Example 3.
# The peptide library was screened with the non-epithelial glioblastoma brain cancer cell line A-172 (American Type Culture Collection).
# (§7) As described in Example 1, after culturing for about 24 to 72 hours, beads with a monolayer of cells were observed. These positive beads were isolated and the amino acid sequence of each positive bead was determined, as described in Example 1.
row,Substance,identified as ligand (positive bead with monolayer of cells)
1,c-D-G-L-G-P-HoPhe-c,identified
2,c-N-G-Nle-G-(4-Pal)-M-c,identified
3,c-d-G-(4-Pal)-G-Phe (4-Me)-T-c,identified
4,c-e-G-L-G-Nle-M-c,identified
5,c-e-G-N-G-S-(1-Nal)-c,identified
6,c-e-G-y-G-Hyp-W-c,identified
7,cDGLGDDc,identified
8,cDGWGPNc,identified

# Test system: non-malignant bronchoepithelial cell line, HBE-1
# Assay: cell-growth-on-bead assay, HBE-1
# Type: cell-based
# Conditions: HBE-1 cells
# Procedure: as §1
# After the incubation period, beads 12 are observed under a dissecting microscope. […] These beads 14 (referred to as “positive” beads) are removed from the culture plates. A tetrazolium dye that stains live, but not dead, cells can be used to facilitate the identification and removal of the positive beads. If a dye is used, all of the beads are removed after the incubation period and resuspended in fresh medium in new culture plates. The dye is added. The plates are then incubated in a tissue culture incubator at 25° C. to 37° C. for about one to four hours. Live cells 10 convert the dye to a colored metabolite, which results in beads 14 with attached cells appearing colored, allowing them to be easily distinguished from beads 16 without attached cells, which appear colorless, as shown in FIG. 1E. Other dyes that stain live cells can also be used. […]
row,Substance,peptide beads on which cell growth was observed [%]
1,cNGRGEQc,10

# Test system: ovarian cancer cell line CaOV3
# Assay: cell-growth-on-bead assay, CaOV3
# Type: cell-based, human
# Conditions: Example 2, cXXXXXXc library, 24 to 72 hours
# Procedure: as §1, §2, §3, §4, §5, §6
# The method as described in Example 1 was performed, except that the combinatorial peptide library was screened with a different type of epithelial cancer cells, the ovarian cancer cell line CaOV3 (American Type Culture Collection).
# as §7
# The method as described in Example 1 was performed, except that a different combinatorial library was used and different types of epithelial cancer cells were used. The peptide library of Example 3 was used, except that the concentration of peptides on the surface of each bead was 20% of that used in Example 3, resulting in an increase in screening stringency. […]
row,Substance,identified as ligand (positive bead with monolayer of cells)
1,cDGLGDDc,identified
2,cDGWGPNc,identified

# Test system: epithelial ovarian cancer cell line OVCAR-3
# Assay: cell-growth-on-bead assay, OVCAR-3
# Type: cell-based, human
# Conditions: Example 4, cX2GX4GX6X7c library, peptide concentration on bead surface 20% of Example 3
# Procedure: as §1, §2, §3, §4, §5, §6
# The method as described in Example 1 was performed, except that a different combinatorial library was used and different types of epithelial cancer cells were used. The peptide library of Example 3 was used, except that the concentration of peptides on the surface of each bead was 20% of that used in Example 3, resulting in an increase in screening stringency.
# The peptide library was screened with one of the following epithelial ovarian cancer cell lines: CaOV3, SKOV-3, ES-2 and OVCAR-3 (American Type Culture Collection).
# as §7
row,Substance,identified as ligand (positive bead with monolayer of cells)
1,c-Nle-G-Nle-G-Tyr(3-NO2)-L-c,identified
2,c-Tyr(3-NO2)-G-F-G-(Pal-3D)-HoSer-c,identified
3,c-d-G-HoCit-G-T-Nva-c,identified
4,c-d-G-Nle-G-1-G-c,identified
5,c-d-G-Phe(3-C l)-G-T-Y-c,identified
6,c-d-G-Tyr(3-NO2)-G-Aic-Q-c,identified

# Test system: non-small-cell lung cancer cell line, A549
# Assay: cell-growth-on-bead assay, A549
# Type: cell-based, human
# Conditions: peptide resynthesized on beads, rescreened with A549 cells
# Procedure: The cell-growth-on-bead assay includes the following steps. A one-bead-one-compound combinatorial library is prepared. The library is preferably synthesized using the “split synthesis” approach described in Lam et al., “A new type of synthetic peptide library,” 82-84. The compounds of the library may be small molecules, peptides, or other types of molecules. An example of a suitable library is a peptide library containing cXXXXXXc peptides, where “c” is D-cysteine which provides intramolecular cyclization by disulfide bonding, and “X” is any L, D, unnatural, or modified amino acid. A suitable solid phase support, such as beads or discs made of polystyrene, agarose, acrylamide, glass, plastic, or paramagnetic substances, is used. Polystyrene beads have been found satisfactory. A standard synthetic solid phase peptide synthesis method, such as fluorenylmethyoxycarbonyl (Fmoc) chemistry or t-butyloxycarbonyl (Boc) chemistry, is used. […]
# The chemical structure of the compound (i.e. ligand) on each isolated positive bead 14 is then determined. If the combinatorial library used was a peptide library, then the amino acid sequence of the ligand is preferably determined with an automated protein sequencer, such as the Procise 494 (Applied Biosystems, Foster City, Calif.). Alternatively, the peptide can be released via a cleavable linker and the amino acid sequence determined by mass spectroscopy. […]
row,Substance,beads with this sequence exhibiting cell attachment and growth on their surfaces
1,cNGRGEQc,Virtually all
